# Source: ChEMBL document CHEMBL5143521, “Identification of a selective BRD4 PROTAC with potent antiproliferative effects in AR-positive prostate cancer based on a dual BET/PLK1 inhibitor” (Eur J Med Chem, 2022)
# The source made the active and inactive calls. The calls are words filed in the database; no cut-off is given here.
# Experiments:
# [1] = target: T1, Protein cereblon/Bromodomain-containing protein 4 (Homo sapiens) (UniProt O60885+Q96SW2); assay: Protac activity at BRD4/CRBN in AR-positive human VCaP cells assessed as degradation of BRD4 by measuring downregulation of BRD4 expression level at 1 nM by Western blot analysis; type: cell-based; conditions: time 2-48 hrs, TDE = time-dependent effect
# T1 sequence (Q96SW2 whole entry, looked up, other chains not shown): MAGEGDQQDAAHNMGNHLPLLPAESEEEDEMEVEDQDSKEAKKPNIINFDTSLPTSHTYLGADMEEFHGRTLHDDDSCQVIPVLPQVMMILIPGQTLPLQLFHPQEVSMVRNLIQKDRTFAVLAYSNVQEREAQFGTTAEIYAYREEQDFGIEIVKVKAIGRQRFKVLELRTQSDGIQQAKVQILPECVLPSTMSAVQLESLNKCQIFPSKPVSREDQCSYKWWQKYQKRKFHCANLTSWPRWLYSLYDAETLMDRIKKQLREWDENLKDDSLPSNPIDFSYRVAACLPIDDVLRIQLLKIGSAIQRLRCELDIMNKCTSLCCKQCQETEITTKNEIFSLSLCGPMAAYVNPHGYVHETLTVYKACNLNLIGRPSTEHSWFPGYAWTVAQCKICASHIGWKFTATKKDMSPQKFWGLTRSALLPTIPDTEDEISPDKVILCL
# MV4-11 = assay: Antiproliferative activity against human MV4-11 cells assessed as reduction in cell viability measured after 4 days by MTT assay; type: functional, cell-based; conditions: MV4-11, 96 h
# [2] = target: T1, Protein cereblon/Bromodomain-containing protein 4 (Homo sapiens); assay: Protac activity at BRD4/CRBN in human VCaP cells assessed as degradation of BRD4 by measuring downregulation of BRD4 expression level at 10 nM incubated for 24 hrs by immunoblotting analysis; type: cell-based
# DU-145 = assay: Antiproliferative activity against AR-negative human castration resistant DU-145 cells assessed as reduction in cell viability measured after 4 days by MTT assay; type: functional, cell-based; conditions: DU-145, 96 h
# VCaP [3] = assay: Inhibition of c-Myc expression level in human VCap cells at 10 nM incubated for 24 hrs by immunoblotting analysis; type: functional, cell-based
# VCaP [4] = assay: Antiproliferative activity against AR-positive human VCaP cells assessed as reduction in cell viability measured after 4 days by MTT assay; type: functional, cell-based; conditions: 96 h
# LNCaP [5] = assay: Antiproliferative activity against AR-positive harmone sensitive human LNCaP cells assessed as reduction in cell viability measured after 4 days by MTT assay; type: functional, cell-based; conditions: 96 h
# CWR22R [6] = assay: Antiproliferative activity against AR-positive human 22Rv1 cells assessed as reduction in cell viability measured after 4 days by MTT assay; type: functional, cell-based; conditions: 22Rv1, 96 h
# CWR22R [7] = assay: Antiproliferative activity against AR-positive human 22Rv1 cells assessed as reduction in cell viability at 100 to 300 nM incubated for 3 days followed by compound washout and measured after 8 days; type: functional; conditions: dose 100-300 nM, time 3 day
# [8] = target: T1, Protein cereblon/Bromodomain-containing protein 4 (Homo sapiens); assay: Protac activity at BRD4/CRBN in AR-positive harmone sensitive human LNCaP cells assessed as degradation of BRD4 by measuring downregulation of BRD4 expression level at 1 nM by Western blot analysis; type: cell-based; conditions: time 2-48 hrs, TDE = time-dependent effect
# [9] = target: T1, Protein cereblon/Bromodomain-containing protein 4 (Homo sapiens); assay: Protac activity at BRD4/CRBN in AR-positive human 22Rv1 cells assessed as degradation of BRD4 by measuring downregulation of BRD4 expression level at 1 nM by Western blot analysis; type: cell-based; conditions: time 2-48 hrs, TDE = time-dependent effect
# LNCaP [10] = assay: Downregulation of c-Myc […] expression level in AR-positive harmone sensitive human LNCaP cells at 1 nM by Western blot analysis; type: functional, cell-based; conditions: time 2-48 hrs, TDE = time-dependent effect
# [11] = target: T1, Protein cereblon/Bromodomain-containing protein 4 (Homo sapiens); assay: Protac activity at BRD4/CRBN in AR-positive human VCaP cells assessed as degradation of BRD4 by measuring downregulation of BRD4 expression level measured after 24 hrs by Western blot analysis; type: cell-based; conditions: dose 1-10000 nM, DDE = dose-dependent effect
# CWR22R [12] = assay: Downregulation of c-Myc […] expression level in AR-positive human 22Rv1 cells measured after 24 hrs by Western blot analysis; type: functional, cell-based; conditions: dose 1-10000 nM, DDE = dose-dependent effect
# VCaP [13] = assay: Downregulation of c-Myc […] expression level in AR-positive human VCaP cells measured after 24 hrs by Western blot analysis; type: functional, cell-based; conditions: dose 1-10000 nM, DDE = dose-dependent effect
# [14] = target: T1, Protein cereblon/Bromodomain-containing protein 4 (Homo sapiens); assay: Protac activity at BRD4/CRBN in AR-negative human castration resistant DU-145 cells assessed as degradation of BRD4 by measuring downregulation of BRD4 expression level at 1 nM by Western blot analysis; type: cell-based; conditions: time 2-48 hrs, TDE = time-dependent effect
# VCaP [15] = assay: Downregulation of c-Myc mRNA expression level in AR-positive human VCaP cells at 100 nM measured after 24 hrs by RT-qPCR analysis; type: functional, cell-based
# [16] = target: T1, Protein cereblon/Bromodomain-containing protein 4 (Homo sapiens); assay: Protac activity at BRD4/CRBN in AR-positive human 22Rv1 cells assessed as degradation of BRD4 at 100 nM measured after 3 hrs in presence of cycloheximide by Western blot analysis; type: cell-based
# [17] = target: Serine/threonine-protein kinase PLK1 (Homo sapiens, UniProt P53350); assay: Inhibition of PLK1 in AR-positive human 22Rv1 cells at 100 nM measured after 3 hrs in presence of cycloheximide by Western blot analysis; type: cell-based
# Serine/threonine-protein kinase PLK1, sequence (P53350 whole entry): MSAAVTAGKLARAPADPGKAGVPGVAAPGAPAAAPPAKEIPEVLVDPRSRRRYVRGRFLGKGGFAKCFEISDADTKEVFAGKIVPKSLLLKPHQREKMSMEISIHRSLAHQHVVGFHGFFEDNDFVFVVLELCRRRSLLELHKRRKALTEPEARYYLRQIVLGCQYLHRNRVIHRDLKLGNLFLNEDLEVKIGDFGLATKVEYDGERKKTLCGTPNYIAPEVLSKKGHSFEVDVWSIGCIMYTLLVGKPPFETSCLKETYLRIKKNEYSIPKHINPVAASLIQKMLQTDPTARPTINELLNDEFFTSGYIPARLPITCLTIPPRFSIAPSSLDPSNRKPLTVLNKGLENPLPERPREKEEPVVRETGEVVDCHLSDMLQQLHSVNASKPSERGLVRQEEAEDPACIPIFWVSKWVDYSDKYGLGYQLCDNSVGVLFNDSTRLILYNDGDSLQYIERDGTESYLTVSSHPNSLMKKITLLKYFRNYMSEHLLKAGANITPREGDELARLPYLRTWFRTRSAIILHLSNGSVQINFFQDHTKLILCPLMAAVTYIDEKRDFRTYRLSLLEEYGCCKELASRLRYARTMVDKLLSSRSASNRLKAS
# [18] = target: T1, Protein cereblon/Bromodomain-containing protein 4 (Homo sapiens); assay: Protac activity at BRD4/CRBN in AR-positive human VCaP cells assessed as degradation of BRD4 at 1 uM measured after 24 hrs in presence of MG-132 by Western blot analysis; type: cell-based
# [19] = target: T1, Protein cereblon/Bromodomain-containing protein 4 (Homo sapiens); assay: Protac activity at BRD4/CRBN in AR-positive human VCaP cells assessed as degradation of BRD4 at 1 uM measured after 24 hrs in presence of MLN4924 by Western blot analysis; type: cell-based
# VCaP [20] = assay: Downregulation of AR protein expression in AR-positive human VCaP cells at 100 nM measured after 48 hrs by Western blot analysis; type: functional, cell-based
# VCaP [21] = assay: Downregulation of PSA protein expression in AR-positive human VCaP cells at 100 nM measured after 48 hrs by Western blot analysis; type: functional, cell-based
# VCaP [22] = assay: Downregulation of PSA gene expression in AR-positive human VCaP cells at 100 nM measured after 24 hrs by RT-qPCR analysis; type: functional, cell-based
# VCaP [23] = assay: Downregulation of TMPRSS2 gene expression in AR-positive human VCaP cells at 100 nM measured after 24 hrs by RT-qPCR analysis; type: functional, cell-based
# VCaP [24] = assay: Downregulation of ERG gene expression in AR-positive human VCaP cells at 100 nM measured after 24 hrs by RT-qPCR analysis; type: functional, cell-based
# VCaP [25] = assay: Downregulation of FKBP5 gene expression in AR-positive human VCaP cells at 100 nM measured after 24 hrs by RT-qPCR analysis; type: functional, cell-based
# VCaP [26] = assay: Downregulation of BMPR1B gene expression in AR-positive human VCaP cells at 100 nM measured after 24 hrs by RT-qPCR analysis; type: functional, cell-based
# CWR22R [27] = assay: Induction of cell cycle arrest in AR-positive human 22Rv1 cells assessed as downregulation of CDK2 expression at 100 to 1000 nM measured after 72 hrs by Western blot analysis; type: functional, cell-based; conditions: dose 100-1000 nM
# CWR22R [28] = assay: Induction of cell cycle arrest in AR-positive human 22Rv1 cells assessed as downregulation of CDK4 expression at 100 to 1000 nM measured after 72 hrs by Western blot analysis; type: functional, cell-based; conditions: dose 100-1000 nM
# CWR22R [29] = assay: Induction of cell cycle arrest in AR-positive human 22Rv1 cells assessed as downregulation of CDK6 expression at 100 to 1000 nM measured after 72 hrs by Western blot analysis; type: functional, cell-based; conditions: dose 100-1000 nM
# CWR22R [30] = assay: Induction of cell cycle arrest in AR-positive human 22Rv1 cells assessed as downregulation of cyclin D1 expression at 100 to 1000 nM measured after 72 hrs by Western blot analysis; type: functional, cell-based; conditions: dose 100-1000 nM
# CWR22R [31] = assay: Induction of cell cycle arrest in AR-positive human 22Rv1 cells assessed as downregulation of cyclin E expression at 100 to 1000 nM measured after 72 hrs by Western blot analysis; type: functional, cell-based; conditions: dose 100-1000 nM
# CWR22R [32] = assay: Induction of cell cycle arrest in AR-positive human 22Rv1 cells assessed as downregulation of cyclin B1 expression at 100 to 1000 nM measured after 72 hrs by Western blot analysis; type: functional, cell-based; conditions: dose 100-1000 nM
# CWR22R [33] = assay: Induction of apoptosis in AR-positive human 22Rv1 cells assessed as increase in late apoptotic cells measured after 72 hrs by Annexin V-FITC/PI staining based flow cytometry method; type: functional, cell-based; conditions: dose 100-1000 nM, DDE = dose-dependent effect
compound,measurement,setting,value
CC[C@@H]1c2nnc(C)n2-c2cnc(Nc3ccc(C(=O)NC4CCN(C(=O)COc5cccc6c5C(=O)N(C5CCC(=O)NC5=O)C6=O)CC4)cc3OC)nc2N1CC1CCCCC1 (stereo not given in full),Activity,[1],Tde
same,IC50,MV4-11,3 nM
same,Activity,[2],Active
same,IC50,DU-145,10000 nM
same,inhibition,VCaP [3],Active
same,IC50,VCaP [4],16 nM
same,IC50,LNCaP [5],21 nM
same,IC50,CWR22R [6],53 nM
same,inhibition (INH),CWR22R [7],100%
same,Activity,[8],Tde
same,Activity,[9],Tde
same,Activity,LNCaP [10],Tde
same,Activity,[11],Dde
same,Activity,CWR22R [12],Dde
same,Activity,VCaP [13],Dde
same,Activity,[14],Tde
same,Activity,VCaP [15],Active
same,Activity,[16],Active
same,inhibition,[17],Active
same,Activity,[18],Active
same,Activity,[19],Active
same,Activity,VCaP [20],Active
same,Activity,VCaP [21],Active
same,Activity,VCaP [22],Active
same,Activity,VCaP [23],Active
same,Activity,VCaP [24],Active
same,Activity,VCaP [25],Active
same,Activity,VCaP [26],Active
same,Activity,CWR22R [27],Active
same,Activity,CWR22R [28],Active
same,Activity,CWR22R [29],Active
same,Activity,CWR22R [30],Active
same,Activity,CWR22R [31],Active
same,Activity,CWR22R [32],Active
same,Activity,CWR22R [33],Dde
